Data on 22 molecules can be found in US11918582B2 (RAPT Therapeutics, Inc., priority 2021, dated 2024).

Molecules are shown by their SMILES. Where a name gives a salt, the structure may show the parent alone.

Usually IC50 stands for the concentration that gives 50% inhibition.

The target of the assay is T1, human HPK1 (MAP4K1) (Homo sapiens, UniProt Q92918).
T1 construct: Recombinant human HPK1 kinase domain was obtained from ThermoFisher (Cat. #PV6357) and SignalChem (Cat. #M23-11G); purchased ThermoFisher; SignalChem PV6357; M23-11G
T1 sequence (Q92918 17-274 limits assumed): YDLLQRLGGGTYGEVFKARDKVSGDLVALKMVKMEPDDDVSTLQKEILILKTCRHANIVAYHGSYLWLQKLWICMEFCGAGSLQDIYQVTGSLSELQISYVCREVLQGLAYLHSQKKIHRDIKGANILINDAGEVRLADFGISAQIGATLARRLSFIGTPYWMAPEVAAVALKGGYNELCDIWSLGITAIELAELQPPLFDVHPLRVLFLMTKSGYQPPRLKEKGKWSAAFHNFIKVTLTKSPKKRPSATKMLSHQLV
The assay is described as follows: Biochemical assay for activity against HPK1 (ADP-Glo, MBP substrate). The following applies: recombinant human HPK1 kinase domain, 1 nM enzyme, ADP-Glo luminescence. The source says:
These compounds are made by the synthetic methods described earlier herein. Example 227 Biochemical Assay for Testing Compounds for Activity against HPK1
The enzymatic activity of human HPK1 (MAP4K1) was monitored in a biochemical assay in the presence or absence of compounds, using a peptide substrate (myelin basic protein, MBP), with an ADP-Glo assay kit (Promega, Cat. #V9103). An increase in phosphorylation of the peptide by HPK1 was indicative of its kinase activity.
Recombinant human HPK1 kinase domain was obtained from ThermoFisher (Cat. #PV6357) and SignalChem (Cat. #M23-11G). A 1 nM HPK1 kinase enzyme solution was prepared from the HPK1 stock received from the commercial supplier using an assay buffer containing 50 mM HEPES (4-(2-hydroxyethyl)-1-piperazineethanesulfonic acid) pH 7.5 (Fisher Scientific, Cat. #H1035), 150 mM NaCl (Fisher Scientific, Cat. #50843067), 3 mM TCEP-HCl (Tris(2-carboxyethyl)phosphine hydrochloride; Fisher Scientific, Cat. #PIPG82080), 10 mM MgCl2 (Fisher Scientific, Cat. #AM9530G), 0.005% Tween-20 (Fisher Scientific, Cat. #BP337500) and 0.01% BSA (bovine serum albumin; ThermoFisher, Cat. #15260037), in ultra-pure water. The final concentration of the assay buffer was 770 nM. A 5 mM stock solution of the peptide substrate was prepared using […] MBP (Myelin Basic Protein, Active Motif, Cat. #31314), 10 mM ATP (adenosine 5′-triphosphate; Sigma-Aldrich, Cat. #GE27-2056-01) and of assay buffer.
Test compounds were dissolved in DMSO (dimethyl sulfoxide) at 10 mM and then serial dilutions were prepared using a ViaFlow assist multichannel dispenser (Integra ViaFlo). 20 nL of test compounds at various concentrations were dispensed into a 1536-well assay plate (Corning Cat. #7247) using an Echo Nanoliter dispenser (Labcyte ECHO 550). […] of a 1 nM solution of HPK1 kinase enzyme diluted in assay buffer was added to the compound-containing plate using a Mantis Microliter dispenser (Formulatrix Mantis), covered with a lid, and incubated for 15 minutes at room temperature. 50 nL of a 5 mM stock solution of the peptide substrate (MBP) were added using the Echo Nanoliter dispenser. The plate was covered with a lid, centrifugated at 500 rpm for 1 minute and incubated for 2 hours at room temperature. […] of ADP-Glo reagent A was added using the Mantis Microliter dispenser, centrifugated at 500 rpm for 30 seconds and incubated for 40 minutes at room temperature. […] of ADP-Glo reagent B was added using the Mantis Microliter dispenser, centrifugated at 500 rpm for 30 seconds and incubated for 30 minutes at room temperature. Peptide phosphorylation was measured by luminescence on an Envision plate reader (PerkinElmer).
The HPK1 biochemical IC50 activity levels of the compounds of Examples 1-225 were tested using this assay and are shown in Table 2.
Turning to `COc1cc2c(cc1Nc1ncc3cnn(C[C@H]4CCCN4C(C)=O)c3n1)CN(C)CC2` [Example 117, (R)-1-(2-((6-((6-methoxy-2-methyl-1,2,3,4-tetrahydroisoquinolin-7-yl)amino)-1H-pyrazolo[3,4-d]pyrimidin-1-yl)methyl)pyrrolidin-1-yl)ethan-1-one trifluoroacetate], the IC50 is under 100 nM. As for `COc1cc2c(cc1Nc1ncc3cnn(C4CC(CO)(CO)C4)c3n1)CN(C)CC2` [Example 77, [1-(hydroxymethyl)-3-[6-[(6-methoxy-2-methyl-3,4-dihydro-1H-isoquinolin-7-yl)amino]pyrazolo[3,4-d]pyrimidin-1-yl]cyclobutyl]dimethanol], the IC50 was under 100 nM. With `CN1CCc2ccc(Nc3ncc4cnn(C[C@@H]5CCC[C@H]5C(=O)O)c4n3)cc2C1` (racemic) [Example 161, Rac-trans-2-[[6-[(2-methyl-3,4-dihydro-1H-isoquinolin-7-yl)amino]pyrazolo[3,4-d]pyrimidin-1-yl]methyl]cyclopentanecarboxylic Acid], the IC50 is under 100 nM.

Regarding `COc1cc2c(cc1Nc1ncc3cnn([C@H]4CC[C@H](OC)CC4)c3n1)CN(C)CC2` [Example 47, 6-methoxy-N-(1-(trans-4-methoxycyclohexyl)-1H-pyrazolo[3,4-d]pyrimidin-6-yl)-2-methyl-1,2,3,4-tetrahydroisoquinolin-7-amine], the IC50 was under 100 nM.

As to `COc1cc2c(cc1Nc1ncc3c(C)nn([C@H]4CC[C@H](O)CC4)c3n1)CN(C)CC2` [Example 50, trans-4-(6-((6-methoxy-2-methyl-1,2,3,4-tetrahydroisoquinolin-7-yl)amino)-3-methyl-1H-pyrazolo[3,4-d]pyrimidin-1-yl)cyclohexan-1-ol], the IC50 is under 100 nM.

`COc1cc2c(cc1Nc1ncc3cnn(C[C@@H]4CCCN4S(N)(=O)=O)c3n1)CN(C)CC2` [Example 190, (S)-2-((6-((6-methoxy-2-methyl-1,2,3,4-tetrahydroisoquinolin-7-yl)amino)-1H-pyrazolo[3,4-d]pyrimidin-1-yl)methyl)pyrrolidine-1-sulfonamide hydrochloride]: the IC50 was under 100 nM. With `COc1cc2c(cc1Nc1ncc3cnn([C@H]4CC[C@@H](C(N)=O)CC4)c3n1)CN(C)CC2` [Example 27, (1s,4s)-4-(6-((6-methoxy-2-methyl-1,2,3,4-tetrahydroisoquinolin-7-yl)amino)-1H-pyrazolo[3,4-d]pyrimidin-1-yl)cyclohexane-1-carboxamide] the figure was under 100 nM; with `COc1cc2c(cc1Nc1ncc3cnn([C@H]4CC[C@H](C(=O)N(C)C)CC4)c3n1)CN(C)CC2` [Example 55, (1r,4r)-4-(6-((6-methoxy-2-methyl-1,2,3,4-tetrahydroisoquinolin-7-yl)amino)-1H-pyrazolo[3,4-d]pyrimidin-1-yl)-N,N-dimethylcyclohexane-1-carboxamide], under 100 nM.

As to `COc1nc2c(cc1Nc1ncc3cnn(C[C@@H]4CC[C@@H](C)N4C(C)=O)c3n1)CN(C)CC2` [Example 173, 1-[(2S,5R)-2-[[6-[(2-methoxy-6-methyl-7,8-dihydro-5H-1,6-naphthyridin-3-yl)amino]pyrazolo[3,4-d]pyrimidin-1-yl]methyl]-5-methyl-pyrrolidin-1-yl]ethenone Methanesulfonic Acid], the half-inhibitory concentration (IC50) is under 100 nM. For `COc1cc2c(cc1Nc1ncc3c(C)nn(C4COC4)c3n1)CN(C)CC2` [Example 3, 6-methoxy-2-methyl-N-[3-methyl-1-(oxetan-3-yl)pyrazolo[3,4-d]pyrimidin-6-yl]-3,4-dihydro-1H-isoquinolin-7-amine], the IC50 is under 100 nM. Consider `CN1CCc2ccc(Nc3ncc4cnn(C56CC7CC(CC(C7)C5)C6)c4n3)cc2C1` [Example 103, N-(1-((3s,5s,7s)-adamantan-1-yl)-1H-pyrazolo[3,4-d]pyrimidin-6-yl)-2-methyl-1,2,3,4-tetrahydroisoquinolin-7-amine], for which the IC50 was under 100 nM. Take `COc1cc2c(cc1Nc1ncc3cnn(Cc4cc[nH]c(=O)c4)c3n1)CN(C)CC2` [Example 219, 4-[[6-[(6-methoxy-2-methyl-3,4-dihydro-1H-isoquinolin-7-yl)amino]pyrazolo[3,4-d]pyrimidin-1-yl]methyl]-1H-pyridin-2-one]: the concentration for half-maximal inhibition (IC50) is under 100 nM. `COc1cc2c(cc1Nc1ncc3cnn(C[C@@H]4CCCN4C(=O)CO)c3n1)CN(C)CC2` [Example 114, (S)-2-hydroxy-1-(2-((6-((6-methoxy-2-methyl-1,2,3,4-tetrahydroisoquinolin-7-yl)amino)-1H-pyrazolo[3,4-d]pyrimidin-1-yl)methyl)230yrrolidine-1-yl)ethan-1-one 2,2,2-trifluoroacetate]: the IC50 was under 100 nM. As to `CO[C@H]1CC[C@H](n2ncc3cnc(Nc4ccc5c(c4)CN(C)CC5)nc32)CC1` [Example 35, N-(1-((1r,4r)-4-methoxycyclohexyl)-1H-pyrazolo[3,4-d]pyrimidin-6-yl)-2-methyl-1,2,3,4-tetrahydroisoquinolin-7-amine], the IC50 was under 100 nM. `CN1CCc2c(cc(Nc3ncc4cnn([C@H]5CC[C@H](CO)CC5)c4n3)cc2C(F)(F)F)C1` [Example 57, ((1r,4r)-4-(6-((2-methyl-5-(trifluoromethyl)-1,2,3,4-tetrahydroisoquinolin-7-yl)amino)-1H-pyrazolo[3,4-d]pyrimidin-1-yl)cyclohexyl)methanol]: the IC50 was under 100 nM. With `COc1cc2c(cc1Nc1ncc3cnn([C@H]4CC[C@@H](O)CC4)c3n1)CN(C)CC2` [Example 39, (1s,4s)-4-(6-((6-methoxy-2-methyl-1,2,3,4-tetrahydroisoquinolin-7-yl)amino)-1H-pyrazolo[3,4-d]pyrimidin-1-yl)cyclohexan-1-ol] the figure was under 100 nM; with `COc1cc2c(cc1Nc1ncc3cnn([C@H]4CC[C@@H](C(=O)O)CC4)c3n1)CN(C)CC2` [Example 26, (1s,4s)-4-(6-((6-methoxy-2-methyl-1,2,3,4-tetrahydroisoquinolin-7-yl)amino)-1H-pyrazolo[3,4-d]pyrimidin-1-yl)cyclohexane-1-carboxylic acid], under 100 nM; with `C=CCCN1CCc2ccc(Nc3ncc4cnn(CCC=C)c4n3)cc2C1` [Example 18, 2-(but-3-en-1-yl)-N-(1-(but-3-en-1-yl)-1H-pyrazolo[3,4-d]pyrimidin-6-yl)-1,2,3,4-tetrahydroisoquinolin-7-amine], under 100 nM. Consider `COc1cc2c(cc1Nc1ncc3cnn([C@H]4C[C@@H](CNC(C)=O)C4)c3n1)CN(C)CC2` [Example 126, N-((cis-3-(6-((6-methoxy-2-methyl-1,2,3,4-tetrahydroisoquinolin-7-yl)amino)-1H-pyrazolo[3,4-d]pyrimidin-1-yl)cyclobutyl)methyl)acetamide], for which the IC50 is 100 to 250 nM. Take `CNC(=O)[C@]1(C)C[C@@H](n2ncc3cnc(Nc4cc5c(cc4OC)CCN(C)C5)nc32)C1` [Example 73, trans-3-[6-[(6-methoxy-2-methyl-3,4-dihydro-1H-isoquinolin-7-yl)amino]pyrazolo[3,4-d]pyrimidin-1-yl]-N,1-methyl-cyclobutanecarboxamide]: the IC50 is under 100 nM. On to `COc1cc2c(cc1Nc1ncc3cnn(C[C@@H]4CCCN4C(=O)C(F)F)c3n1)CN(C)CC2` [Example 186, (S)-2,2-difluoro-1-(2-((6-((6-methoxy-2-methyl-1,2,3,4-tetrahydroisoquinolin-7-yl)amino)-1H-pyrazolo[3,4-d]pyrimidin-1-yl)methyl)pyrrolidin-1-yl)ethan-1-one], for which the IC50 is under 100 nM.

For the molecule `COc1cc2c(cc1Nc1ncc3cnn(C4CCC(C)(CO)CC4)c3n1)CN(C)CC2` (mixture of isomers) [Example 75, [4-[6-[(6-methoxy-2-methyl-3,4-dihydro-1H-isoquinolin-7-yl)amino]pyrazolo[3,4-d]pyrimidin-1-yl]-1-methyl-cyclohexyl]methanol], the IC50 was over 251 nM.
